In PubChem BioAssay AID463229 (Broad Institute, 2010):

These compounds were tested on INS-1E rat beta cells, no cytokines, CellTiter-Glo ATP, 48 h (assay: ATP level change in INS-1E without cytokines, dose response, counter-screen for beta-cell apoptosis protection project, INS-1E rat cells, ATP luminescence, cherry pick (AID 463229)).

First: CC[C@@H](C(=O)[C@@H](C)[C@@H](O)[C@H](C)CCc1ccc(C)c(O)c1C(=O)O)[C@H]1O[C@](CC)([C@H]2CC[C@](O)(CC)[C@H](C)O2)C[C@@H]1C
Second: CCCCCc1cc(=O)oc2c(C(CCN3CCCC(C)C3)c3ccc(OC)cc3)c(OC)cc(OC)c12 (stereo not drawn)
The AC50 of the first is 5.7-fold lower: 2.49 µM for the first, 14.2 µM for the second.

Compared with CCN(CC)S(=O)(=O)c1ccc(Oc2ccc(S(=O)(=O)N(CC)CC)cc2)cc1, CCN(CC)S(=O)(=O)c1cc(NC(=O)CNc2cccc(S(=O)(=O)N3CCCC3)c2)ccc1C is 2.6-fold higher in AC50: 2.88 µM for the first, 7.43 µM for the second.

O=[N+]([O-])c1ccc(Sc2cccc3cccnc23)c([N+](=O)[O-])c1 and CCC(=O)NC(c1ccc(C)cc1)c1cc([N+](=O)[O-])c2cccnc2c1O (stereo not drawn) are within 1.5-fold of each other in AC50: 14.5 µM for the first, 13.8 µM for the second.

First: CC(NC(=S)NC1CCCCC1)c1ccc(C(C)(C)C)cc1 (stereo not drawn)
Second: O=C(CCl)N(c1ccccc1)C1CCCCC1
The AC50 of the first is 2-fold higher: 11.2 µM for the first, 5.56 µM for the second.

First: COc1cccc(F)c1C(C[N+](=O)[O-])c1c(N)n(C)c(=O)n(C)c1=O (stereo not drawn)
Second: COc1ccc(C(=O)N2CCN(c3ccc([N+](=O)[O-])c(NCCc4ccc(OC)c(OC)c4)c3)CC2)cc1
The AC50 of the first is 2.4-fold higher: 8.3 µM for the first, 3.46 µM for the second.

First: C/C(=N\NC(=O)C(=O)Nc1cccc(Cl)c1)c1ccncc1
Second: C=CCc1cccc(/C=N/NC(=O)CCC(=O)Nc2ccc(F)cc2)c1O
The AC50 of the first is 1.6-fold lower: 6.53 µM for the first, 10.2 µM for the second.

Going from Cn1cc(C(=O)N/N=C/c2c(O)ccc3ccccc23)ccc1=O to Cc1cc(C)n(CCC(=O)N/N=C/c2c(O)ccc3ccccc23)n1, the AC50 rises from 2.5 µM to 9.78 µM (3.9-fold).

CNC[C@@H](Cc1ccccc1)NC[C@@H](CC1CCCCC1)NCCCc1ccccc1 and CCOC(=O)/C(=C\c1ccccc1)C(=O)c1cc(C(C)=O)c(Nc2ccccc2)s1 are within 1.5-fold of each other in AC50: 7.41 µM for the first, 6.53 µM for the second.

O=C(NNC(=O)c1ccccc1O)c1ccc(Cl)c(S(=O)(=O)N2CCc3ccccc32)c1 and COC(=O)c1ccccc1NC1=C/C(=N\S(=O)(=O)c2cccs2)c2ccccc2C1=O are within 1.5-fold of each other in AC50: 7.82 µM for the first, 8.33 µM for the second.

First: O=C(COc1ccc2ccccc2c1)N1CCN(Cc2c[nH]c3ccccc23)CC1
Second: Cc1cccnc1CN1CCN(C(=O)c2cc(COc3ccc4ncccc4c3)on2)CC1
The AC50 of the first is 1.9-fold lower: 2.8 µM for the first, 5.44 µM for the second.

Going from CCC1CCCCN1C(=O)c1cc(COc2ccc(-n3cncn3)cc2)on1 (stereo not drawn) to CC(=O)N1CCN(c2ccc(Oc3ccc([N+](=O)[O-])c(C(F)(F)F)c3)cc2)CC1, the AC50 falls from 16.5 µM to 7.04 µM (2.3-fold).

First: Cc1cccnc1Nc1nc(-c2ccccn2)cs1
Second: Cc1ccc2nc(NC(=O)c3ccccn3)sc2c1
The AC50 of the first is 3.6-fold lower: 2.58 µM for the first, 9.36 µM for the second.

COc1ccc(C(=O)c2c(C(F)(F)F)oc3c2C(=O)c2ccccc2C3=O)cc1 and COc1ccc2c(C(=O)NCc3ccc4c(c3)OCO4)c(-c3ccc(S(C)(=O)=O)cc3)sc2c1 are within 1.5-fold of each other in AC50: 6.74 µM for the first, 9.16 µM for the second.

Compared with Cc1ccc(Nc2c(-c3ccccn3)nc3ccc(C)cn23)cc1, Cc1ccc(-n2c(-c3ccc(Br)cc3)c[n+]3c2CCc2ccc4cccnc4c2-3)cc1 is 15-fold lower in AC50: 7.28 µM for the first, 0.482 µM for the second.

Going from C=CCn1cc(/C=C/c2cc[n+](C)cc2)c2ccccc21 to CN(C)c1ccc(/C=C/c2ccc3ccccc3n2)cc1, the AC50 falls from 4.63 µM to 2.28 µM (2-fold).

Going from O=C(N/N=C/c1cccnc1)c1ccc(NC(=O)C(c2ccccc2)c2ccccc2)cc1 to O=C(CN1CC[n+]2c(-c3cccs3)csc21)c1ccc(-c2ccccc2)cc1, the AC50 rises from 0.848 µM to 2.34 µM (2.8-fold).

First: CCCCCCCCCCn1c2c(c(=N)c3c1CCC3)CCC2
Second: CCCCCCOC(=O)C[N+](C)(C)CCOC1CC2CCC1(C)C2(C)C (stereo not drawn)
The AC50 of the first is lower: less than 0.195 µM for the first, 4.48 µM for the second.

Going from Cc1ccc(NC(=O)/C=C/c2ccc([N+](=O)[O-])s2)c(C)c1 to CC(C)(C)c1cc(C(=O)N/N=C/c2ccc([N+](=O)[O-])s2)n[nH]1, the AC50 falls from 13.1 µM to 6.84 µM (1.9-fold).

CCOC(=O)c1c(NC(=O)C[n+]2ccc(Cc3ccccc3)cc2)sc(C)c1C and CCOC(=O)c1cnc(-n2nc(C)cc2C)nc1NCc1ccccc1 are within 1.5-fold of each other in AC50: 10.9 µM for the first, 7.8 µM for the second.

Compared with CCN1C/C(=C/c2cccc([N+](=O)[O-])c2)C(=O)/C(=C/c2cccc([N+](=O)[O-])c2)C1, O=C(N/N=C/c1ccccc1O)C1CC(=O)N(c2ccc(Cl)cc2)C1 (stereo not drawn) is 7.4-fold higher in AC50: 2.39 µM for the first, 17.7 µM for the second.

First: Nc1nonc1-n1nnc(C(=O)N/N=C/c2cc(Cl)ccc2O)c1CN1CCCCCC1
Second: Oc1ccc(Nc2nc(N3CCCC3)c3ccccc3n2)cc1
The AC50 of the first is 1.8-fold lower: 10.5 µM for the first, 18.9 µM for the second.

Compared with CC1CCN(c2ccc(NC(=O)c3ccc([N+](=O)[O-])o3)cc2)CC1, Cc1ccc(NC(=O)C2CCN(S(=O)(=O)c3ccc4c(c3)NC(=O)C(C)S4)CC2)cc1Cl (stereo not drawn) is 2.2-fold lower in AC50: 10.1 µM for the first, 4.64 µM for the second.

Compared with O=C(Nc1ccc(F)cc1)Nc1cc(OCC(F)(F)F)cc(OCC(F)(F)F)c1, FC(F)(F)c1ccccc1NC(=S)N1CCN(Cc2ccc3c(c2)OCO3)CC1 is 3.3-fold higher in AC50: 2.25 µM for the first, 7.35 µM for the second.

Compared with CCOc1cc(-c2sc(Nc3cc(C)ccc3OC)n[n+]2-c2ccccc2)ccc1OC, O=C1C=C(c2ccc(F)cc2OCc2ccccc2)C[C@@H](c2ccc(Cl)cc2)C1 is 2.7-fold lower in AC50: 15 µM for the first, 5.46 µM for the second.

Compared with CCc1ccc(-c2nn(-c3ccccc3)cc2CSC(=N)N)cc1, CC(C)(C)c1ccc(CSc2cnn(C(C)(C)C)c(=O)c2Cl)cc1 is lower in AC50: 8.32 µM for the first, less than 0.195 µM for the second.

Compared with Cc1cc(N/N=C/c2ccc(F)cc2)nc(-n2nc(C)cc2C)n1, Cc1nc(N/N=C/c2ccccn2)sc1C is 2.1-fold lower in AC50: 20.1 µM for the first, 9.42 µM for the second.

Cc1ccc(O)c(N=Nc2nccs2)c1 showed an AC50 of 7.04 µM.
